In patent US20250346588A1, “IMIDAZOPYRIDINE AND OXAZOLOPYRIDINE DERIVATIVES AND ANALOGS THEREOF, METHODS OF PREPARATION THEREOF, METHODS OF HIF-1/2A PATHWAY INHIBITION, AND INDUCTION OF FERROPTOSIS” (KUDA THERAPEUTICS, INC., priority 2022, published 2025):

Legend:
ISCA2 = target: T1, ISCA2 (Homo sapiens, UniProt Q86U28); assay: Thermal shift assay with recombinant ISCA2 (SYPRO Orange); format: binding
T1 construct: His6 (N); made in house; host or cells: E. coli Rosetta (DE3)
T1 sequence (Q86U28 9-154): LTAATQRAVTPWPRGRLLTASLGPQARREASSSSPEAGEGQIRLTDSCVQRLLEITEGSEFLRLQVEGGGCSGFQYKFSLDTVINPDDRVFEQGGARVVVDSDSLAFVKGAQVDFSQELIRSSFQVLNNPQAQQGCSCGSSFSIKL
Experimental: Thermal shift assays were performed by monitoring the change in protein melting temperature (Tm) in the absence or presence of test compounds, using the hydrophobic protein binding dye, SYPRO Orange (S6650, Thermo Fisher Scientific), measured using the LightCycler 480 (Roche Life Sciences, Indianapolis, IN) according to the manufacturer's protocol. Recombinant ISCA2 was produced by expressing amino acid residues 9-154 of ISCA2 (ISCA2 lacking its mitochondrial localization sequence) in the pET28 vector containing an N-terminal His6 tag in Rosetta (DE3) competent cells (Novagen, Millipore Sigma). ISCA2 production was induced by treating ISCA2 transformed log phase cells with 0.25 mM IPTG for 4 hours at 18° C. ISCA2 was purified using Ni^2+ affinity purification according to standard protocols and eluted in 50 mM Tris-C1 pH7.4, 150 mM NaCl, 5 mM DTT. Thermal shift assays were performed in 384-well plates using 1 μl of a 10× concentration of SYPRO Orange, 8 μl of ISCA2 (4 μg protein) and 1 μl of 1-2 mM stock of test compound per well. The LightCycler was used according to the following setup: LightCycler 480 Instrument Temperature Setup: First target of 20° C., with a Hold of 15 seconds; second target of 95° C., with Acquisition Mode of Continuous, and 10 acquisitions per degree c.; and third target of 20° C., with a Hold of 15 seconds. Tms were determined using Roche Protein Melting Analysis Software. Representative data are shown in FIGS. 6 and 7 using compound 1 and 26HCL at 200 and 100 µM final concentration respectively. […] These findings are supported by studies showing that re-expression of VHL (which increases ISCA2) and overexpression of ISCA2 itself, promotes the resistance of cells to the compounds (shown in FIG. 8).

HIF-1α and HIF-2α = assay: Western blots for HIF-1α and HIF-2α in ccRCC cells; format: cell-based, human; conditions: 786-0 or RCC10 ccRCC cells, 24h, relative to GAPDH
Experimental: Western blots were performed to determine the effects of the compounds on levels of HIF-2α and other relevant proteins, whereas qPCR was performed to determine the effects of compounds on transcript levels of HIF target genes. 786-0 or RCC10 cells were plated at 1×10E5 cells/well in 2 ml DMEM with 10% FBS/well in 6-well tissue culture plates. Cells were allowed to adhere overnight in a humidified incubator at 37° C. with 5% CO2, after which the appropriate concentrations of compounds in DMSO were added. DMSO concentrations were kept constant in all wells. After 24 h exposure to the compounds, cells were lysed and subjected to western blotting according to standard protocols. Antibodies for HIF-1α and HIF-2α and GAPDH were purchased from Cell Signaling Technology (Danvers, MA), whereas antibodies to IRP2 and pVHL were from Santa Cruz Biotechnology (Dallas, TX), and GPX4 antibody was from R&D Systems, Inc (Minneapolis, MN). Representative data in FIG. 2 show a dose-dependent effect of compounds in decreasing HIF-1/2α. Compounds also impact cellular iron sensing given by increased IRP2, which taken together indicate that cells sense decreased amounts of available iron, which triggers the iron starvation response initiated by IRP2 stabilization. Representative data shown in FIG. 3D show a dose dependent effect of the compounds on GPX4, which may indicate decreased resistance to ferroptosis. […] The data also show increased expression of ISCA2 with pVHL re-expression.

[1] = system: HIF-2α Iron-Responsive Element (IRE); assay: HIF-2α IRE-Luc reporter assay; format: cell-based, human; conditions: 786-0 cells stably expressing HIF-2α IRE-Luc, 24h
Experimental: Screens for inhibitory activity of compounds described herein were performed using 786-0 ccRCC cells that stably express HRE-Luc: 5 copies of the hypoxia-responsive element (HRE) fused to the pGL3 luciferase reporter (Promega Corp, Madison WI). 786-0 cells are pVHL deficient and thus constitutively express HIF-2α independently of cellular oxygen tension. Since 786-0 cells lack HIF-1α, HRE-driven luciferase activity is primarily HIF-2α driven, and has been previously validated. Cells were maintained at log phase growth in […] (DMEM) with 10% FBS in a humidified incubator at 37° C. with 5% CO2. For screening assays, cells were seeded at a density of 4,000 cells in 50 μl of complete media/well in quadruplicate wells/point in a 96-well plate. After 24 h, 50 μl of a 2× concentration of test compound was added to each well. […] After 24 h treatment, luciferase activity was measured using the Steady-Glo Luciferase assay system (Promega Corp) according to the manufacturer's protocol. Cell viability was measured in quadruplicate parallel wells using resazurin as recommended by the manufacturer (R&D systems, Minneapolis, MN). […] Representative data determined using Steady-Glo luciferase and resazurin are shown in FIGS. 1A and 1B respectively, with error bars showing SD. […]

[2] = system: RCC4 or 786-0 cells±pVHL re-expression; assay: Cell viability with pVHL re-expression; format: cell-based, human; conditions: 48h

For `COc1ccc(-c2nnc(Nc3nc4c(OC)nccc4[nH]3)o2)cc1OC` [Compound 26HCL, N-(4-Methoxy-1H-imidazo[4,5-c]pyridin-2-yl)-5-(3,4-dimethoxyphenyl)-1,3,4-oxadiazol-2-amine], the “Tm of ISCA2 in compound-treated wells” value (ISCA2; 100 μM compound, control wells 55.02±0.2) was 56.3±0.02 °C, the “change in melting temperature of ISCA2 (in words)” value (ISCA2; compound 1 and 26HCL at 200 and 100 μM final concentration respectively) was “significant change in melting temperature of ISCA2” and the “effect on HIF-1α and HIF-2α protein (Western blot)” value (HIF-1α and HIF-2α) was “decreases HIF-1α and HIF-2α”. The “effect on IRE-luciferase reporter activity normalized to resazurin” value [1] was “decrease IRE-mediated translation of HIF-2α” and the “effect of pVHL re-expression on cell viability response to compound” value [2] was “re-expression of pVHL promotes resistance”.
